# From US20100204286A1, “METHOD FOR REDUCING GASTROINTESTINAL ADVERSE EFFECTS OF CYTOTOXIC AGENTS” (priority 2009, published 2010)
# Legend:
# [1] = system: LPS-induced NF-κB-dependent transcription; assay: LPS-induced NF-κB-dependent transcription in extracted organs of NF-κB::Luc mice (luciferase assay); format: in vivo; conditions: 30 mg/kg; 0.5 mg/kg LPS; versus LPS alone
# Description: For luciferase assays, organs were extracted and snap frozen in liquid nitrogen. All tissue samples were placed in lysis buffer with inhibitors (Passive Lysis Buffer (Promega) and Complete Mini Protease Inhibitor Cocktail (Roche, Indianapolis, Ind.)), and were homogenized using a tissue homogenizer (Handishear, Hand-held homogenizer, VirTis, Gardiner, N.Y.). Tissue homogenates were centrifuged and clarified lysates were used for luminometer assays and western blots. For the luminometer assays, Luciferase Assay Substrate (Luciferase Assay System, Promega) was prepared as indicated by the manufacturer and placed in disposable cuvettes. […] Background luminescence readings were obtained and the background readings were subtracted from the luminescent data. Protein concentrations were determined using the BCA Protein Assay Kit (Pierce, Rockford, Ill.) following the manufacturer's protocols and analyzed using a VERSAmax tunable microplate reader and associated Softmax Pro version 3.1.2 software (Molecular Devices, Sunnyvale Calif.). The luminescence for each of the protein lysates was calculated as arbitrary units of light per microgram of protein. […]
# ORE1001 was further tested for in vivo anti-inflammatory activity by examining its effects on bacterial LPS-induced NF-κB-dependent transcription, in NF-κB::Luc mice. […] Luciferase signal was quantitated from several regions of interest. […]
# [2] = system: NF-κB-dependent transcription; assay: In vivo basal NF-κB-dependent transcription in NF-κB::Luc reporter mice (abdominal imaging); conditions: 4 hours
# Description: ORE1001 was further tested for in vivo anti-inflammatory activity by examining its effects on basal levels of NF-κB-dependent transcription in mice engineered in the germline with a construct containing an NF-κB enhancer linked to a luciferase gene (i.e., NF-κB::Luc mice), such that this NF-κB reporter construct is present in all cells of the mice.
# More particularly, transgenic NF-κB::Luc mice were generated using three NF-κB response elements from the Igic light chain promoter fused to a firefly luciferase gene as described by Carlsen et al. (2002) J. Immunol. 168:1441-1446. Pronuclear microinjection of purified construct DNA was used to generate transgenic founders in the C57BL/6 XCBA/J background. Founders were subsequently back crossed to the C57BL/6 albino background. […] Signal data were also quantitated and archived using the Living Image® software. Photons of light were quantitated using an oval region of interest (ROI) of varying sizes depending on the procedure, as described further below.
# To test for in vivo effects of ORE1001 on basal levels of NF-κB-dependent transcription, male NF-κB::Luc mice were subjected to quantitative in vivo imaging of the abdominal area (using a fixed ROI of 2.76×3.7 cm) as described above, immediately before, and at 2, […]
# [3] = system: LPS-induced NF-κB signaling; assay: In vivo LPS-induced NF-κB-dependent transcription in NF-κB::Luc mice (abdominal imaging)
# Description: More particularly, transgenic NF-κB::Luc mice were generated using three NF-κB response elements from the Igic light chain promoter fused to a firefly luciferase gene as described by Carlsen et al. (2002) J. Immunol. 168:1441-1446. Pronuclear microinjection of purified construct DNA was used to generate transgenic founders in the C57BL/6 XCBA/J background. Founders were subsequently back crossed to the C57BL/6 albino background. All experimental protocols were approved by the Institutional Animal Care and Use Committee and conform to the ILAR guide for the care and used of laboratory animals. […] Signal data were also quantitated and archived using the Living Image® software. Photons of light were quantitated using an oval region of interest (ROI) of varying sizes depending on the procedure, as described further below.
# ORE1001 was further tested for in vivo anti-inflammatory activity by examining its effects on bacterial LPS-induced NF-κB-dependent transcription, in NF-κB::Luc mice. […] Mice were subjected to quantitative abdominal imaging at 2, 4 and 6 h following LPS administration, as described above. […] Luciferase signal was quantitated from several regions of interest. […]
# As shown by the quantitative imaging data in FIG. 4, LPS induced a strong NF-κB-dependent luciferase signal in control mice, indicating a strong NF-κB signaling response, as expected. […]
# [4] = system: NF-κB-dependent transcription; assay: TNFα-induced activation of NF-κB in recombinant HeLa reporter cells (luciferase); format: cell-based
# Description: To test the ACE2 inhibitor ORE1001 for anti-inflammatory activity relevant to IBD, effects of the compound on activation of NF-κB-dependent transcription by TNFα were examined in recombinant reporter cells containing a construct with a luciferase reporter gene under control of NF-κB-dependent regulatory sequences, thereby allowing detection of NF-κB-dependent transcription by measuring reporter enzyme using a conventional luciferase activity assay based on detection of generated light.
# In particular, HeLa cells (American Type Culture Collection) were grown in Dulbecco's modified Eagles medium (DMEM) supplemented with 10% fetal calf serum and transiently transfected with an NF-κB—luc construct (Stratagene, Inc.), as follows (with all incubation steps at 37 C unless otherwise indicated). Cells were seeded and grown to about 70% confluency in a 10 cm cell culture dish. Plasmid DNA (10 μg) was added to 1 ml serum free DMEM media in a tube. Fugene 6 transfection reagent (30 μl) (Roche) was then pipetted slowly into the tube and the contents were gently mixed by inversion. The mixture was incubated at room temperature for 15 minutes and then added dropwise to cells in one 10 cm dish. Following incubation for 24 hours, cells were detached from the plate with Trypsin-EDTA (Gibco-BRL), transferred to wells in a clear-bottom white 96-well test plate (Fisher) with 100 μl per well serum free DMEM, at a density of 3×10^4 cells per well, and allowed to attach overnight. Compound (ORE1001) was then added to wells at a concentration of approximately 0, 0.008, 0.04, 0.2, 1.0 or 5.0 μM, followed immediately by addition of TNFα (R&D) to a final concentration of 20 ng/ml. After incubation for 6 hours, 100 μl of Bright-Glo Luciferase buffer (Promega, Cat#E2610) was added, and the plate was incubated at room temperature, with mild shaking, for 10 min. Bioluminescence was then measured using a Veritas luminometer (Turner BioSystems). Each plotted data point represents the average bioluminescence of 4 independent wells.
# [5] = system: radiation-induced proctitis; assay: Rat model of radiation-induced proctitis (endoscopy, histopathology, body weight); format: in vivo; conditions: for proctitis severity (endoscopy, day 8): 17.5 Gy on day 0
# Description: A rat model was used to determine whether ORE1001 can reduce severity of radiation-induced proctitis, as assessed by endoscopy, and can reduce histopathological indicators of radiation-induced proctitis. This is a validated model, as described for example in the publications cited individually below and incorporated herein by reference.
# Female Lewis rats of body weight 175-200 g and 6-8 weeks old were randomized into 3 groups of 8 animals each, for induction of proctitis by radiation as described below. In addition, a group of 8 female Lewis rats of body weight 175-200 g and 6-8 weeks old were followed as untreated, non-irradiated controls. Animals were acclimated prior to study commencement. The study was performed in animal rooms provided with filtered air at a temperature of 70±5° F. (˜21±3° C.) and relative humidity of 50±20%, and a 12 h/12 h light/dark cycle. Animals were fed with LabDiet 5053 sterile irradiated rat chow. Water was provided ad libitum.
# Proctitis was induced by a single 17.5 Gy dose of radiation at a rate of 1 Gy/minute administered to each animal on day 0. Lead shielding was used to cover the animal except for a 3×4 cm area of the lower pelvis, permitting exposure to radiation of an approximately 2 cm length of rectum and distal descending colon. Radiation was generated with a Kimtron 160 kV, 15 mA source at a focal distance of 30 cm, hardened with a 0.35 mm Cu filtration system. Prior to irradiation, animals were anesthetized with an intraperitoneal injection of ketamine (100 mg/kg) and xylazine (5 mg/kg). Animals were inclined in a slightly head-down position, to allow gravity to move non-target abdominal organs out of the radiation path as much as possible.
# ORE1001 in a vehicle of 0.5% carboxymethylcellulose (CMC) in sterile water was administered per os at a daily dose of 600 mg/kg in 5 ml/kg vehicle from day 0 to day 7 (first group) or from day −2 to day 7 (second group). A third group received vehicle only, from day −2 to day 7.
# All animals were weighed daily and examined for diarrhea and fecal blood. On day 8, all animals were examined by rodent endoscope under isoflurane anesthesia and were scored for severity of proctitis. Following endoscopy, animals were euthanized by CO2 inhalation and the descending colon and rectum to the anus were taken as a single tissue sample for histological examination. Histopathology was recorded by scoring inflammation, edema and necrosis.
# [6] = system: activator protein-1 (AP-1); assay: Basal in vivo reporter luciferase expression in AP-1::Luc mice; conditions: data not shown
# [7] = 600 mg/kg per os daily, day 0 to day 7
# [8] = 600 mg/kg per os daily, day −2 to day 7
compound,measurement,setting,value
"CC(C)C[C@H](N[C@@H](Cc1cncn1Cc1cc(Cl)cc(Cl)c1)C(=O)O)C(=O)O [ORE1001, (S,S)-2-[1-carboxy-2-[3-(3,5-dichlorobenzyl)-3H-imidazol-4-yl]-ethylamino]-4-methylpentanoic acid]","LPS-induced NF-κB signaling in pancreas and uterus, or any other organ analyzed",[1],no statistically significant decrease
same,reduction of LPS-induced NF-κB-dependent transcription in stomachs,[1],about 37 fold
same,inhibition of basal in vivo levels of NF-κB-dependent transcription in abdominal ROI,"[2]; 300 mg/kg subcutaneous, p<0.01",over 40%
same,inhibition of basal in vivo levels of NF-κB-dependent transcription in abdominal ROI,"[2]; both lower doses, subcutaneous",lesser but still significant extents
same,"LPS-induced NF-κB signaling response, abdominal region","[3]; FIG. 4, 30, 100, 300 mg/kg subcutaneous 1 hour before LPS i.v.",significantly reduced
same,"LPS-induced NF-κB signaling, abdominal region","[3]; FIG. 5, lower dose range 3-100 mg/kg, at 30 and 100 mg/kg",significantly reduced
same,inhibition of TNFα-induced activation of NF-κB-dependent transcription,"[4]; 8 nM, TNFα 20 ng/ml, 6 hours, HeLa",over 80%
same,maximal inhibition of TNFα-induced activation of NF-κB-dependent transcription,"[4]; 0.2 μM, TNFα 20 ng/ml, 6 hours, HeLa",over 95%
same,TNFα-induced activation of NF-κB-dependent transcription,[4]; all tested concentrations (0.008-5.0 μM),significantly inhibited
same,edema score (histopathology),[5]; [7],statistically non-significant trend for reduction
same,necrosis score (histopathology),[5]; [7],statistically non-significant trend for reduction
same,sum score (histopathology),[5]; [7],statistically non-significant trend for reduction
same,"proctitis severity (endoscopy, day 8)",[5]; [7],minor but statistically non-significant reduction
same,inflammation score (histopathology),[5]; [8],statistically significant reductions
same,necrosis score (histopathology),[5]; [8],statistically significant reductions
same,"sum of inflammation, edema and necrosis scores",[5]; [8],statistically significant reductions
same,"proctitis severity (endoscopy, day 8)",[5]; [8],substantial reduction
same,body weight change,[5]; among the treatments,No major differences
same,basal in vivo levels of reporter luciferase expression,[6],no significant effect
